Laboratory results published in PubChem BioAssay (NCI).
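Values below derive from 48-hour exposures of cells grown in 96-well plates, with endpoints linearly interpolated between the two concentrations bracketing the appropriate inhibition level. The concentration for 50% growth inhibition is given as GI50. The concentration for full growth arrest is given as TGI.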

What was measured:
Assay in all cases: inhibition of tumour cell growth, NCI panel, 48 h
[1] = tested on: NCI-H23 lung
[2] = tested on: 786-0 renal
[3] = tested on: OVCAR-4 ovarian
[4] = tested on: MDA-MB-231 breast
[5] = tested on: SW-620 colon
[6] = tested on: SR leukemia
[7] = tested on: HCT-116 colon
[8] = tested on: HOP-62 NSCLC
[9] = tested on: HT29 colon
[10] = tested on: BT-549 breast
[11] = tested on: SK-OV-3 ovarian
[12] = tested on: CCRF-CEM leukemia
[13] = tested on: PC-3 prostate
[14] = tested on: OVCAR-3 ovarian
[15] = tested on: EKVX NSCLC
[16] = tested on: HCT-15 colon
[17] = tested on: SF-268 CNS
[18] = tested on: HL-60(TB) leukemia
[19] = tested on: SF-295 CNS
[20] = tested on: NCI-H522 lung
[21] = tested on: RXF 393 renal
[22] = tested on: UO-31 renal
[23] = tested on: COLO 205 colon
[24] = tested on: HOP-92 NSCLC
[25] = tested on: SK-MEL-2 melanoma
[26] = tested on: MDA-MB-435
[27] = tested on: NCI-H226 lung
[28] = tested on: HS 578T breast
[29] = tested on: MDA-MB-468 breast

SMILES: COc1cc(NC(=O)c2cccc(C3CCc4c(cc(OC)c(OC)c4OC)O3)c2)cc(OC)c1OC (configuration not stated)
- GI50 [1]: 4.37 µM
- TGI [1]: > 100 µM
- GI50 [2]: 4.23 µM
- TGI [2]: > 100 µM
- GI50 [3]: 4.49 µM
- TGI [3]: > 100 µM
- GI50 [4]: 4.12 µM
- TGI [4]: > 100 µM
- GI50 [5]: 3.52 µM
- TGI [5]: > 100 µM
- GI50 [6]: 0.925 µM
- TGI [6]: 84.9 µM
- GI50 [7]: 3.69 µM
- TGI [7]: > 100 µM
- GI50 [8]: 3.51 µM
- TGI [8]: > 100 µM
- GI50 [9]: 2.46 µM
- TGI [9]: 6.07 µM
- GI50 [10]: 1.99 µM
- TGI [10]: 8.22 µM
- GI50 [11]: 3.65 µM
- TGI [11]: > 100 µM
- GI50 [12]: 2.75 µM
- TGI [12]: > 100 µM
- GI50 [13]: 2.66 µM
- TGI [13]: > 100 µM
- GI50 [14]: 3.42 µM
- TGI [14]: > 100 µM
- GI50 [15]: 6.37 µM
- TGI [15]: > 100 µM
- GI50 [16]: 2.7 µM
- TGI [16]: > 100 µM
- GI50 [17]: 3.78 µM
- TGI [17]: > 100 µM
- GI50 [18]: 2.04 µM
- TGI [18]: 5.79 µM
- GI50 [19]: 2.46 µM
- TGI [19]: > 100 µM
- GI50 [20]: 1.56 µM
- TGI [20]: 4.63 µM
- GI50 [21]: 1.59 µM
- TGI [21]: 8.46 µM
- GI50 [22]: 2.59 µM
- TGI [22]: 19.2 µM
- GI50 [23]: 2 µM
- TGI [23]: 5.31 µM
- GI50 [24]: 3.96 µM
- TGI [24]: > 100 µM
- GI50 [25]: 2.66 µM
- TGI [25]: > 100 µM
- GI50 [26]: 0.497 µM
- TGI [26]: 3.33 µM
- GI50 [27]: 2.55 µM
- GI50 [28]: 2.04 µM
- TGI [28]: 6.74 µM
- GI50 [29]: 1.24 µM
- TGI [29]: 4.41 µM
